The values below come from PubChem BioAssay AID1259407 (Chemical Carcinogenesis Research Information System (CCRIS), 2018).

The source made the active and inactive calls. No rule for the calls is given here.

This data set relates to CCRIS mutagenicity, Ames/micronucleus/aberration tests. Briefly: CCRIS mutagenicity studies.

For `COCCCN(N=O)C(N)=O`, the mutagenic call reads like this: (Test System: E. COLI B, Strain/Indicator: H/R30R, Metabolic Activation: NONE) “active; positive”; (Test System: E. COLI B, Strain/Indicator: HS30R, Metabolic Activation: NONE) “active; positive”.

Consider `O[C@H]1[C@H]2O[C@H]2c2c(ccc3c4c5c(cccc5cc23)C=C4)[C@@H]1O`, for which the mutagenic call reads like this: (Test System: AMES SALMONELLA TYPHIMURIUM, Strain/Indicator: TA98, Metabolic Activation: NONE, Method: STANDARD PLATE) “active; positive”; (Test System: AMES SALMONELLA TYPHIMURIUM, Strain/Indicator: TA98, Metabolic Activation: RAT, LIVER, S-9, AROCLOR 1254 (0.4, 0.8, 1.15 OR 1.5 MG/PLATE), Method: STANDARD PLATE) “active; positive”; (Test System: AMES SALMONELLA TYPHIMURIUM, Strain/Indicator: TA98, Metabolic Activation: RAT, LIVER, S-9, AROCLOR 1254, Method: STANDARD PLATE) “active; positive”.
